According to US5278308A, “Iodine derivatives of tetrabenazine” (The Trustees of The University of Pennsylvania, priority 1992, dated 1994):
Like-named read-outs stand apart in the source and are kept apart here.

Key:
[1] = Protein binding by TCA (10% rat plasma, 30 min, 37° C.); assay type: in vitro ADME; settings: rat, 10% plasma, TCA precipitation
Procedure: One ml of 10% rat plasma was mixed with [^123 I]I-TBZ in a test tube and the mixture was incubated for 30 minutes at 37° C. To the mixture 0.4 mL of 10% trichloroacetic acid (TCA) was added. The test tube was centrifuged for 10 min. (4,000 rpm), and the top aqueous layer was removed to another test tube for counting The precipitate was washed with water (0.5 mL×2). The combined water and top aqueous layer was counted. The residual precipitate was also counted. The protein binding was obtained by dividing counts in precipitate with counts in aqueous layers.

[2] = Protein binding by Filter (50% rat plasma, Amicon micropartition system); assay type: in vitro ADME; settings: rat, 50% plasma, 30 min, 37° C.
Procedure: One mL of rat plasma (50%) was mixed with [^123 I]I-TBZ in a test tube. After 30 min incubation at 37° C., 50 uL ×3 of liquid was removed as initial dose standard (I.D.); the rest was passed through an Amicon micropartition system (Amicon division, W. R. Grace, Danvers, Mass.) by centrifuging for 20 minutes (2,000 rpm) at 0° C. Four samples (50 uL each) were removed from the filtered solution and counted. The protein binding (% bound) was calculated by using the unit counts in filtrate divided by unit counts in ID.

[3] = Biodistribution in rats (iv injection); assay type: in vivo; settings: rat, iv
Procedure: While under ether anesthesia, each rat was injected in the femoral vein with 0.2 mL saline solution containing [^123 I]I-TBZ (1-5uCi) either racemic mixture, peak-A or peak-B. The rats were sacrificed at various time points postinjection by cardiac excision. The tissues were weighed and the radioactivity was measured with a Canberra gamma counter (Model 5000). The percent dose per organ was calculated by a comparison of the tissue counts to suitably diluted aliquots of the injected material. Total activities of blood and muscle were calculated assuming that they were 7% and 40% of total body weight, respectively Results are presented in Tables 3, 4A and 4B.

[4] = Regional brain distribution in rats (dissection, iv injection); assay type: in vivo; settings: for Str./Cb (% dose/gram ratio) / Regional brain uptake, Rem / Regional brain uptake, cerebellum / Regional brain uptake, cortex / Regional brain uptake, hippocampus / Regional brain uptake, striatum / tissue uptake at 5 min / tissue uptake at 20 min: rat
Procedure: Regional brain distribution of [^123 I]I-TBZ (with either a racemic mixture, peak A or B) in rats was obtained after an iv injection. By dissecting, weighing and counting samples from different brain regions (cortex, striatum, hippocampus and cerebellum), % dose/gram of the samples was calculated by comparing the sample counts with the counts of the diluted initial dose. The ratio of uptake in each region was obtained by dividing % dose/gram of each region with that of the cerebellum. The effect of tetrahydrobenazine on the uptake of peak A or peak B was investigated by pretreating the rats with the TBZ 3 mg/rat at 3 min before iv injection of [^123 I]I-TBZ. At 20 min. post injection the rats were dissected and the regional brain dissection was carried out as above.

[5] = 20 min, pretreated with TBZ 3 min before, n = 2
[6] = 120 min, listed as I-TBZ peak A

COc1cc2c(cc1OC)C1CC(O)(C=C[123I])C(CC(C)C)CN1CC2 (single isomer, unassigned) [Peak A]
fraction unbound at 0.5 h [1]: 0.619
fraction unbound at 0.5 h [2]: 0.182
Brain uptake ([3]; 2 min): 1.2 % Dose/organ
Blood uptake (blood assumed 7% of body weight) ([3]; 5 min): 2.15 ± 0.11 % Dose/organ
Br/Bl (% dose/gram ratio) ([3]; 5 min): 5.51 ± 0.37
Brain uptake ([3]; 5 min): 1.12 ± 0.15 % Dose/organ
Heart uptake ([3]; 5 min): 0.91 ± 0.17 % Dose/organ
Kidney uptake ([3]; 5 min): 4.43 ± 0.56 % Dose/organ
Liver uptake ([3]; 5 min): 21.23 ± 2.66 % Dose/organ
Lung uptake ([3]; 5 min): 2.85 ± 0.52 % Dose/organ
Muscle uptake (muscle assumed 40% of body weight) ([3]; 5 min): 11.96 ± 1.56 % Dose/organ
Skin uptake ([3]; 5 min): 8.72 ± 1.52 % Dose/organ
Spleen uptake ([3]; 5 min): 0.62 ± 0.13 % Dose/organ
Thyroid uptake ([3]; 5 min): 0.08 ± 0.01 % Dose/organ
Blood uptake (blood assumed 7% of body weight) ([3]; 20 min): 1.42 ± 0.56 % Dose/organ
Br/Bl (% dose/gram ratio) ([3]; 20 min): 4.59 ± 1.10
Brain uptake ([3]; 20 min): 0.58 ± 0.01 % Dose/organ
Heart uptake ([3]; 20 min): 0.49 ± 0.04 % Dose/organ
Kidney uptake ([3]; 20 min): 2.21 ± 0.11 % Dose/organ
Liver uptake ([3]; 20 min): 16.16 ± 4.71 % Dose/organ
Lung uptake ([3]; 20 min): 1.65 ± 0.11 % Dose/organ
Muscle uptake (muscle assumed 40% of body weight) ([3]; 20 min): 26.79 ± 7.14 % Dose/organ
Skin uptake ([3]; 20 min): 9.00 ± 5.10 % Dose/organ
Spleen uptake ([3]; 20 min): 0.44 ± 0.06 % Dose/organ
Thyroid uptake ([3]; 20 min): 0.05 ± 0.01 % Dose/organ
Blood uptake (blood assumed 7% of body weight) [3, 5]: 2.05 ± 0.21 % Dose/organ
Br/Bl (% dose/gram ratio) [3, 5]: 4.10 ± 0.27
Brain uptake [3, 5]: 0.85 ± 0.12 % Dose/organ
Heart uptake [3, 5]: 0.61 ± 0.11 % Dose/organ
Kidney uptake [3, 5]: 2.03 ± 0.24 % Dose/organ
Liver uptake [3, 5]: 13.34 ± 4.06 % Dose/organ
Lung uptake [3, 5]: 1.74 ± 0.002 % Dose/organ
Muscle uptake (muscle assumed 40% of body weight) [3, 5]: 29.70 ± 2.56 % Dose/organ
Skin uptake [3, 5]: 7.08 ± 2.33 % Dose/organ
Spleen uptake [3, 5]: 0.06 ± 0.07 % Dose/organ
Thyroid uptake [3, 5]: 0.08 ± 0.01 % Dose/organ
Blood uptake (blood assumed 7% of body weight) ([3]; 60 min): 1.14 ± 0.16 % Dose/organ
Br/Bl (% dose/gram ratio) ([3]; 60 min): 3.05 ± 0.12
Brain uptake ([3]; 60 min): 0.33 ± 0.07 % Dose/organ
Heart uptake ([3]; 60 min): 0.38 ± 0.07 % Dose/organ
Kidney uptake ([3]; 60 min): 1.52 ± 0.28 % Dose/organ
Liver uptake ([3]; 60 min): 10.12 ± 1.26 % Dose/organ
Lung uptake ([3]; 60 min): 1.17 ± 0.06 % Dose/organ
Muscle uptake (muscle assumed 40% of body weight) ([3]; 60 min): 21.88 ± 2.74 % Dose/organ
Skin uptake ([3]; 60 min): 14.76 ± 4.35 % Dose/organ
Spleen uptake ([3]; 60 min): 0.36 ± 0.04 % Dose/organ
Thyroid uptake ([3]; 60 min): 0.07 ± 0.01 % Dose/organ
Blood uptake (blood assumed 7% of body weight) ([3]; 120 min): 0.95 ± 0.03 % Dose/organ
Br/Bl (% dose/gram ratio) ([3]; 120 min): 1.96 ± 0.43
Brain uptake ([3]; 120 min): 0.18 ± 0.04 % Dose/organ
Heart uptake ([3]; 120 min): 0.26 ± 0.03 % Dose/organ
Kidney uptake ([3]; 120 min): 1.05 ± 0.1q
Liver uptake ([3]; 120 min): 7.54 ± 0.77 % Dose/organ
Lung uptake ([3]; 120 min): 0.81 ± 0.14 % Dose/organ
Muscle uptake (muscle assumed 40% of body weight) ([3]; 120 min): 18.56 ± 2.34 % Dose/organ
Skin uptake ([3]; 120 min): 11.22 ± 3.92 % Dose/organ
Spleen uptake ([3]; 120 min): 0.23 ± 0.04 % Dose/organ
Thyroid uptake ([3]; 120 min): 0.07 ± 0.05 % Dose/organ
Regional distribution / selectivity in rat brain (in words) [4]: significantly increased selective regional distribution
Str./Cb (% dose/gram ratio) ([4]; 5 min, listed as I-TBZ peak A): 1.09
Regional brain uptake, Rem ([4]; 20 min, listed as I-TBZ peak A): 0.395 ± 0.019 % Dose/g
Regional brain uptake, cerebellum ([4]; 20 min, listed as I-TBZ peak A): 0.362 ± 0.017 % Dose/g
Regional brain uptake, cortex ([4]; 20 min, listed as I-TBZ peak A): 0.420 ± 0.031 % Dose/g
Regional brain uptake, hippocampus ([4]; 20 min, listed as I-TBZ peak A): 0.414 ± 0.032 % Dose/g
Regional brain uptake, striatum ([4]; 20 min, listed as I-TBZ peak A): 0.479 ± 0.014 % Dose/g
Str./Cb (% dose/gram ratio) ([4]; 20 min, listed as I-TBZ peak A): 1.32
Str./Cb (% dose/gram ratio) [4, 5]: 1.12
Regional brain uptake, Rem ([4]; 60 min, listed as I-TBZ peak A): 0.229 ± 0.036 % Dose/g
Regional brain uptake, cerebellum ([4]; 60 min, listed as I-TBZ peak A): 0.225 ± 0.029 % Dose/g
Regional brain uptake, cortex ([4]; 60 min, listed as I-TBZ peak A): 0.234 ± 0.035 % Dose/g
Regional brain uptake, hippocampus ([4]; 60 min, listed as I-TBZ peak A): 0.230 ± 0.048 % Dose/g
Regional brain uptake, striatum ([4]; 60 min, listed as I-TBZ peak A): 0.271 ± 0.046 % Dose/g
Str./Cb (% dose/gram ratio) ([4]; 60 min, listed as I-TBZ peak A): 1.21
Regional brain uptake, Rem [4, 6]: 0.118 ± 0.022 % Dose/g
Regional brain uptake, cerebellum [4, 6]: 0.116 ± 0.026 % Dose/g
Regional brain uptake, cortex [4, 6]: 0.129 ± 0.019 % Dose/g
Regional brain uptake, hippocampus [4, 6]: 0.113 ± 0.041 % Dose/g
Regional brain uptake, striatum [4, 6]: 0.138 ± 0.022 % Dose/g
Str./Cb (% dose/gram ratio) [4, 6]: 1.19
tissue uptake at 5 min ([4]; brain remainder, 5 min, read-out: Regional brain uptake, Rem): 0.74 ± 0.063 %ID/g
tissue uptake at 20 min ([4]; brain remainder, 20 min, pretreated with TBZ 3 min before, n = 2, read-out: Regional brain uptake, Rem): 0.545 ± 0.047 %ID/g
tissue uptake at 5 min ([4]; cerebellum, 5 min, read-out: Regional brain uptake, cerebellum): 0.708 ± 0.044 %ID/g
tissue uptake at 20 min ([4]; cerebellum, 20 min, pretreated with TBZ 3 min before, n = 2, read-out: Regional brain uptake, cerebellum): 0.534 ± 0.032 %ID/g
tissue uptake at 5 min ([4]; cortex, 5 min, read-out: Regional brain uptake, cortex): 0.792 ± 0.096 %ID/g
tissue uptake at 20 min ([4]; cortex, 20 min, pretreated with TBZ 3 min before, n = 2, read-out: Regional brain uptake, cortex): 0.585 ± 0.067 %ID/g
tissue uptake at 5 min ([4]; hippocampus, 5 min, read-out: Regional brain uptake, hippocampus): 0.725 ± 0.066 %ID/g
tissue uptake at 20 min ([4]; hippocampus, 20 min, pretreated with TBZ 3 min before, n = 2, read-out: Regional brain uptake, hippocampus): 0.581 ± 0.075 %ID/g
tissue uptake at 5 min ([4]; striatum, 5 min, read-out: Regional brain uptake, striatum): 0.77 ± 0.019 %ID/g
tissue uptake at 20 min ([4]; striatum, 20 min, pretreated with TBZ 3 min before, n = 2, read-out: Regional brain uptake, striatum): 0.596 %ID/g
